Marks after values point to notes of the source that are not given here.
Assays:
[1] = in vivo; parameters: species or system mice; settings: mouse
Excerpt: The mice (C57BL/6J, male, 6-8 weeks) were from Charles River Spain (Barcelona). The procedures and animal care were based on institutional standards and complied with national and international laws and policies (Directive 86/609, OJ L 358. 1 of the Council of the European Community, of 12 Dec. 1987) and the “Guide for the Care and Use of Laboratory Animals” of the National Institutes of Health (NIH, USA) (NIH Publication No. 85-23, 1985). All the animals were fed according to concentrated laboratory diets (Letica, Barcelona, Spain) allowing them free access to food and submitting them to a cycle of 12 hours of light/12 hours of darkness with ambient temperature of 22° C. The experiments were begun at 10.00 a.m. to minimize the effects of diurnal variations.
For the pharmacokinetic studies and for the daily treatment, the mice were administered i.v. (via the jugular vein, where a permanent catheter had previously been fixed by surgical methods; i.v. administration was carried out slowly for 1 minute), and orally (via stomach tube), 20 mg/kg of t-PTER (dissolved in ethanol 0.5 ml/kg of animal weight) or QUER (dissolved in dimethylsulfoxide:saline, 1:0.5 0.15 ml/kg of weight). In general, the compositions based on a combination of PTER and QUER can contain, as excipients, those stated previously or any others that are pharmaceutically acceptable. The presentation of said compositions can be, non-limitatively, in the form of solids such as tablets, capsules, pellets, pills, etc. and liquid presentations such as drops, syrups, injectables, etc. Moreover, the active principles (PTER and QUER) of the composition can be in their uncombined forms or in the form of pharmaceutically acceptable salts, including esters. The t-PTER was synthesized in our laboratory following standardized reactions of Wittig and Heck (www.orgsyn.org), whereas the QUER was obtained from Sigma Chemical Co. (San Luis, Mo., USA). The ^3H-t-PTER (2.2 Ci/mmol), labeled in the ortho and para positions of the benzene rings, was prepared in our laboratory according to a method similar to that used for the deuteration of phenols (18). ^14C-QUER (50 mCi/mmol), labeled in position 4 of the carbon ring, was obtained from the NCI Radiochemical Carcinogen Repository of Chemsyn Laboratories (Kansas City, Mo., USA). The radioactivity was measured using a Varisette 2700 TR analyzer from Packard. Blood was collected by means of the catheter in 1-ml syringes that contained heparin sodium (0.05 ml of a 5% solution in […]). The plasma and the erythrocytes were separated as described previously (19).
LC-MS/MS was carried out using a Quattro Micro triple quadrupole mass spectrometer (Micromass, Manchester, UK) equipped with an LC-10Advp pump, an SLC-10Avp control system and an SIL-10Advp autoinjector from Shimadzu. The samples were analyzed by reverse-phase high-performance liquid chromatography using a Prodigy ODS column (100×2 mm) from Phenomenex (Torrance, Calif., USA), with a particle size of 3 μm. In all cases, 40 μl was injected into the column. Column temperature was maintained at 25° C. The following gradient system was used, pumped through the column at 0.2 ml/minute (min/% A/% B/% C) (A, methanol; B, 10% acetonitrile and 90% ammonium formate 10 mM pH 3.75; C, ammonium formate 10 mM pH 3.75): 0/5/5/90, 10/5/5/90, 20/5/90/5, 30/100/0/0, 40/5/5/90. The negative ion tandem mass spectra obtained by electrospray were recorded with the electrospray capillary fixed at […] and at a temperature of the source block of 120° C. Nitrogen was used as nebulizer gas and drying gas, with flows of 300 and 30 l/h, respectively. Argon at 1.5×10^−3 mbar was used as the collision gas for collision-induced dissociation. A test was carried out based on LC-MS/MS with tracking of multiple reactions using the transitions m/z 255-240 for PTER and […] for QUER, which in both cases represent favorable fragmentation routes for these deprotonated molecules. […]

[2] = tested on: B16M-F10 cells; assay: In vivo microscopy: B16M-F10 cells adhering to the HSE and intact cells; parameters: species or system mice; settings: for Intact cells: B16M-F10, 6 hours postinjection, none 83 ± 14; for Number of cells adhering to the HSE: B16M-F10 precultured with polyphenols, 60 minutes postinjection, none 45 ± 7
Method: (§1) Hepatic metastases were induced by i.v. inoculations (portal vein), in anesthetized mice (Nembutal, 50 mg/kg i.p.), of 4×10^5 viable B16M-F10 cells suspended in 0.2 ml of DMEM. The mice were sacrificed by cervical dislocation 10 days after inoculation. The livers were fixed by immersion for 24 hours at 22° C. in 10% formaldehyde in PBS (pH 7.4), and were subsequently embedded in paraffin. The density of metastases (average number of foci/100 mm^3 of liver detected in fifteen sections of 10×10 mm^2 per liver) and the volume of metastases (average percentage of liver volume occupied by metastases) were determined as described previously (22).
(§2) This methodology makes it possible for the effect of PTER and QUER to be studied in vivo. For this purpose, mice were inoculated with B16M-F10 control cells or B16M-F10/Tet-Bcl-2 which overexpressed Bcl-2. Both subgroups of cells were cultivated beforehand in the absence or in the presence of t-PTER and QUER. B16M-F10 cells were cultivated for 72 hours. t-RESV (12 μM), t-PTER (40 μM), and QUER (20 μM) were added at 6, 30 and 54 hours of culture time, and were present in each case for just 60 minutes. Then they were removed from the culture flasks by washing (3 times with PBS) and the medium was renewed. The levels of Bcl-2 in the B16M-F10 control cells and cells treated with Tet-Bcl-2 were 24±5 and 105±14 units/mg of protein, respectively (n=5 in each case, P<0.01). The number of adhering cells shown in the table was calculated at 60 minutes postinjection (no significant differences were found when the measurements were effected at 30, 120, 180, 240 or 360 minutes postinjection, data not shown). The number of intact cells was calculated at 6 hours postinjection. The experimental microscopy data in vivo are mean values±SD corresponding to 4-5 different experiments. The growth of metastases in the liver was evaluated as stated in the corresponding section of the description, and in this case the mice were treated daily (×10 days) with t-PTER and/or QUER (20 mg/kg of body weight) administered i.v. (the data are mean values±SD corresponding to 25 mice per group). A similar method and equal number of mice per group were used for evaluating the survival of the carrier animals. The test of significance relates, in all the groups, to comparison between cases with PTER and/or QUER and cases without additions (*P<0.05 and **P<0.01), and to comparison between the B16M-F10/Tet-Bcl-2 cells with the B16M-F10 control cells (^+P<0.05, ^++P<0.01). […] This is the first time that the combined administration in vivo of natural polyphenols has induced inhibition of metastatic growth of a highly malignant tumor and an increase in the survival of the carrier.

[3] = tested on: B16M-F10; assay: Growth of hepatic metastases of B16M-F10 in mice; format: in vivo; settings: 20 mg/kg i.v. daily x10 days; for Volume of metastases: none 22 ± 4; for Density of metastases: none 27 ± 5
Method: as §1, §2

half-life [1] [min]	SMILES	half-life ([1]; male, C57BL/6J, iv, 20 mg/kg) [min]	time in which plasma concentration decreases to ~1 μM ([1]; male, C57BL/6J, iv, 20 mg/kg) [min]	levels in whole blood compared with plasma [1]	Intact cells [2]	Number of cells adhering to the HSE [2]	Volume of metastases [3]	Density of metastases [3]	PTER measured in plasma or blood in the trans form ([1]; male, C57BL/6J)
–	O=c1c(O)c(-c2ccc(O)c(O)c2)oc2cc(O)cc(O)c12 [QUER, quercetin]	~20.1	120	not significantly different	52 ± 8** percentage of cells adhering t	46 ± 9 average number per lobe	12 ± 3** percentage of liver volume	15 ± 4** number of foci/100 mm^3	–
~10.2	Oc1ccc(C=Cc2cc(O)cc(O)c2)cc1 [RESV, resveratrol, reference compound]	–	–	–	–	–	–	–	–
–	COc1cc(/C=C/c2ccc(O)cc2)cc(OC)c1 [PTER, pterostilbene]	~77.9	480	not significantly different	85 ± 17 percentage of cells adhering t	20 ± 5** average number per lobe	14 ± 4** percentage of liver volume	18 ± 4** number of foci/100 mm^3	At least 99%

— patent publication US8227510B2, “Combine use of pterostilbene and quercetin for the production of cancer treatment medicaments” (Universitat de Valencia, priority 2004, dated 2012)
